Among the data in PMC9897788, “Design, synthesis and cytotoxic evaluation of novel bis-thiazole derivatives as preferential Pim1 kinase inhibitors with in vivo and in silico study” (Journal of Enzyme Inhibition and Medicinal Chemistry, 2023) are inhibition values, retold here.

SMILES strings stand for the structures.

Test in all cases: NCI 60 cell one-dose screening (SRB)
Common to all, as to type: cell-based

One assay relates to HCT-15. To be noted: Homo sapiens; HCT-15, Colon Cancer; single dose 10 µM, 48 h; read-out: Percentage of cellular growth inhibition. Here is the method: (§1) The 60 cancerous cell panel screening was performed following the Developmental Therapeutics Program (DTP) of the National Cancer Institute (NIH-NCI), USA. A single dose of 10 µM was used to perform the screening at 48 h incubation and the results were achieved as cancerous cell growth percentage relative to the no-drug control that was converted to an inhibition percentage by subtracting from 100.The cancerous cell lines were grown in RPMI 1640 medium containing 5% foetal bovine serum and 2 mM L-glutamine at 37 °C, 5% CO2, 95% air and 100% relative humidity for 24 h prior to addition of the tested compounds. After 24 h, two plates of each cell line were fixed in situ with TCA to represent a measurement of the cell population for each cell line at the time of drug addition (Tz). Compounds were dissolved in DMSO at 400-fold the desired final maximum test concentration and stored frozen prior to use. At the time of drug addition, an aliquot of frozen concentrate was thawed and diluted to twice the desired final maximum test concentration with complete medium containing 50 µg/mL gentamicin. Aliquots of 100 µL of the compounds dilution was added to the appropriate micro titre wells already containing 100 µL of medium, resulting in the required final drug concentrations of 10 µM. Following compounds addition, the plates were incubated for an additional 48 h at 37 °C, 5% CO2, 95% air, and 100% relative humidity. For adherent cells, the assay was terminated by the addition of cold TCA. Cells were fixed in situ by the gentle addition of 50 µL of cold 50% (w/v) TCA (final concentration, 10% TCA) and incubated for 60 min at 4 °C. The supernatant was discarded, and the plates were washed five times with tap water and air dried. Sulphorhodamine B (SRB) solution (100 µL) at 0.4% (w/v) in 1% acetic acid is added to each well, and plates are incubated for 10 min at room temperature. After staining, unbound dye was removed by washing five times with 1% acetic acid and the plates were air dried. Bound stain was subsequently solubilised with 10 mM trizma base, and the absorbance was read on an automated plate reader at a wavelength of 515 nm. For suspension cells, the methodology was the same except that the assay was terminated by fixing settled cells at the bottom of the wells by gently adding 50 µL of 80% TCA (final concentration, 16% TCA). Using the seven absorbance measurements [time zero, (Tz), control growth, I, and test growth in the presence of drug at the five concentration levels (Ti)], the percentage growth was calculated as: [(Ti−Tz)/(C−Tz)]×100 for concentrations for which Ti>/=Tz [(Ti−Tz)/Tz]×100 for concentrations for which Ti<Tz.

A further assay relates to RPMI-8226. To be noted: Homo sapiens; RPMI-8226, Leukemia; single dose 10 µM, 48 h; read-out: Percentage of cellular growth inhibition. As for the experimental part:
as §1

The test system of another assay is MALME-3M. To be noted: Homo sapiens, Melanoma, single dose 10 µM, 48 h, read-out: Percentage of cellular growth inhibition. Here is the method: as §1
In the next assay the test system is ACHN. The note with it: Homo sapiens, Renal Cancer, single dose 10 µM, 48 h, read-out: Percentage of cellular growth inhibition. Here is the method:
as §1

A further assay concerns OVCAR-5. The note with it: Homo sapiens; OVCAR-5, Ovarian Cancer; single dose 10 µM, 48 h; read-out: Percentage of cellular growth inhibition. Here is the method: as §1
For another assay, the system named is HCT-116. The note with it: Homo sapiens; HCT-116, Colon Cancer; single dose 10 µM, 48 h; read-out: Percentage of cellular growth inhibition. As for the experimental part:
as §1

For the next assay, the system named is A498. To be noted: Homo sapiens; A498, Renal Cancer; single dose 10 µM, 48 h; read-out: Percentage of cellular growth inhibition. As for the experimental part: as §1
In the next assay the test system is SNB-19. To be noted: Homo sapiens; SNB-19, CNS Cancer; single dose 10 µM, 48 h; read-out: Percentage of cellular growth inhibition. As for the experimental part:
as §1

The test system of a further assay is UO-31. To be noted: Homo sapiens; UO-31, Renal Cancer; single dose 10 µM, 48 h; read-out: Percentage of cellular growth inhibition. Here is the method: as §1
In a further assay the test system is SK-MEL-28. To be noted: Homo sapiens; SK-MEL-28, Melanoma; single dose 10 µM, 48 h; read-out: Percentage of cellular growth inhibition. Here is the method:
as §1

The test system of another assay is CCRF-CEM. To be noted: Homo sapiens, Leukemia, single dose 10 µM, 48 h, read-out: Percentage of cellular growth inhibition. As for the experimental part:
as §1

In another assay the test system is HL-60(TB). To be noted: Homo sapiens, Leukemia, single dose 10 µM, 48 h, read-out: Percentage of cellular growth inhibition. As for the experimental part: as §1
The next assay has as its system OVCAR-4. To be noted: Homo sapiens; OVCAR-4, Ovarian Cancer; single dose 10 µM, 48 h; read-out: Percentage of cellular growth inhibition. As for the experimental part:
as §1

Another assay deals with UACC-62. The note with it: Homo sapiens; UACC-62, Melanoma; single dose 10 µM, 48 h; read-out: Percentage of cellular growth inhibition. Here is the method: as §1
The subject of another assay is DU-145. The note with it: Homo sapiens; DU-145, Prostate Cancer; single dose 10 µM, 48 h; read-out: Percentage of cellular growth inhibition. As for the experimental part: as §1
A further assay concerns HT29. The note with it: Homo sapiens, HT-29; HT29, Colon Cancer; single dose 10 µM, 48 h; read-out: Percentage of cellular growth inhibition. As for the experimental part: as §1
For a further assay, the system named is MDA-MB-231/ATCC. To be noted: Homo sapiens, Breast Cancer, single dose 10 µM, 48 h, read-out: Percentage of cellular growth inhibition. As for the experimental part: as §1
For the next assay, the system named is HOP-92. To be noted: Homo sapiens, HOP-92, 48 h, HOP-92, Non-Small Cell Lung Cancer, single dose 10 µM, read-out: Percentage of cellular growth inhibition. Here is the method: as §1
For the next assay, the system named is PC-3. The note with it: Homo sapiens; PC-3, Prostate Cancer; single dose 10 µM, 48 h; read-out: Percentage of cellular growth inhibition. As for the experimental part:
as §1

The test system of the next assay is KM12. The note with it: Homo sapiens; KM12, Colon Cancer; single dose 10 µM, 48 h; read-out: Percentage of cellular growth inhibition. Here is the method:
as §1

The next assay relates to MOLT-4. The note with it: Homo sapiens; MOLT-4, Leukemia; single dose 10 µM, 48 h; read-out: Percentage of cellular growth inhibition. As for the experimental part:
as §1

As a reminder, the inhibition is the drop in the measured response relative to a control, in per cent. Turning to `Cc1csc(Nc2cccc(Nc3nc(C)cs3)c2)n1` [3a, N^1,N^3-bis(4-methylthiazol-2-yl)benzene-1,3-diamine], the inhibition at 10 µM in the assay on HCT-15 is 7.3%; in the assay with RPMI-8226 it was 11.8%; in the assay with MALME-3M, -18.3%; in the assay with ACHN, 20.7%; in the assay with OVCAR-5, 7.1%; in the assay with HCT-116, 4.8%. In addition, the inhibition at 10 µM in the assay on A498 was 51.2%; in the assay on SNB-19, 1%; in the assay with UO-31 it was 15.7%; with SK-MEL-28, 10.4%; in the assay on CCRF-CEM, 1.5%; in the assay on HL-60(TB), 18.2%. Further, the inhibition at 10 µM with OVCAR-4 was 11.8%; with UACC-62, 22.3%; with DU-145 it was 10.2%; with HT29 it was -6.8%; with MDA-MB-231/ATCC it was 21.2%; in the assay with HOP-92 it was 41.2%. In addition, the inhibition at 10 µM with PC-3 stood at 20.2%; with KM12 it was 5.2%; with MOLT-4 it was 44%.

For `CC(=O)c1sc(Nc2cccc(Nc3nc(C)c(C(C)=O)s3)c2)nc1C` [3b, 1,1’-(2,2’-(1,3-Phenylenebis(azanediyl))bis(4-methylthiazole-5,2-diyl))diethanone], the inhibition at 10 µM with HCT-15 came to 55.1%; in the assay with RPMI-8226 it was 32.1%; in the assay on MALME-3M, 30.2%; in the assay with ACHN, 63.5%; with OVCAR-5 it was 16.5%; in the assay on HCT-116 it was 55.8%. Further, the inhibition at 10 µM with A498 was determined as 72.3%; with SNB-19, 9.1%; in the assay on UO-31, 67.8%; with SK-MEL-28, 28.5%; in the assay with CCRF-CEM, 38.8%; in the assay on HL-60(TB), 65.8%. Moreover, the inhibition at 10 µM in the assay on OVCAR-4 came out at 48.5%; in the assay on UACC-62, 51.2%; in the assay on DU-145, 54.6%; with HT29, 30%; in the assay with MDA-MB-231/ATCC, 19.3%; with HOP-92, 36.4%. For the same molecule, the inhibition at 10 µM was determined as 48.7% in the assay on PC-3, 39.8% with KM12 and 61.7% in the assay with MOLT-4.

Consider `CCOC(=O)c1sc(Nc2cccc(Nc3nc(C)c(C(=O)OCC)s3)c2)nc1C` [3c, Diethyl 2,2’-(1,3-phenylenebis(azanediyl))bis(4-methylthiazole-5-carboxylate)], for which the inhibition at 10 µM turned out to be 20.9% in the assay with HCT-15; 37.7% with RPMI-8226; 15.2% in the assay on MALME-3M; 24.6% in the assay on ACHN; 8% with OVCAR-5; 43.5% in the assay with HCT-116. Besides, the inhibition at 10 µM in the assay with A498 is 52.7%; with SNB-19 it was 17.7%; with UO-31, 32.9%; in the assay with SK-MEL-28, 15.7%; in the assay with CCRF-CEM it was 11%; in the assay with HL-60(TB) it was 22.7%. Besides, the inhibition at 10 µM with OVCAR-4 was 33.2%; with UACC-62, 33.1%; in the assay on DU-145, 16.2%; in the assay with HT29, -4.7%; in the assay on MDA-MB-231/ATCC, 20.8%; in the assay with HOP-92 it was 47.8%. Besides, the inhibition at 10 µM in the assay on PC-3 came to 22.9%; with KM12, 12.2%; in the assay with MOLT-4, 29.2%.

With `Cc1nc(Nc2cccc(Nc3nc(C)c(N=Nc4ccccc4)s3)c2)sc1N=Nc1ccccc1` [5a, N^1,N^3-bis(4-methyl-5-(phenyldiazenyl)thiazol-2-yl)benzene-1,3-diamine], the inhibition at 10 µM in the assay on HCT-15 was 21%; in the assay on RPMI-8226, -9.4%; in the assay on MALME-3M, -7.7%; with ACHN, 38.3%; in the assay on OVCAR-5 it was 19.8%; with HCT-116, 14.1%. For the same molecule, the inhibition at 10 µM was found to be 1.2% in the assay on A498; 42.6% in the assay with SNB-19; 69.7% in the assay with UO-31; 2.5% with SK-MEL-28; 12.3% in the assay on CCRF-CEM; 5.5% with HL-60(TB). Also, the inhibition at 10 µM is 30.8% with OVCAR-4; 30.9% in the assay on UACC-62; 16.6% in the assay on DU-145; 2% in the assay with HT29; 35.1% in the assay on MDA-MB-231/ATCC; -4% in the assay with HOP-92. Moreover, the figures for the inhibition at 10 µM with PC-3, in the assay with KM12 and in the assay with MOLT-4 were -3.3%, 52.1% and 32.6%, respectively.

As to `CCOc1ccc(/N=N/c2sc(Nc3cccc(Nc4nc(C)c(/N=N/c5ccc(OCC)cc5)s4)c3)nc2C)cc1` [5b, N^1,N^3-bis(5-((4-ethoxyphenyl)diazinyl)-4-methylthiazol-2-yl)benzene-1,3-diamine], the inhibition at 10 µM is 8.4% with HCT-15; -7.2% with RPMI-8226; -6.9% in the assay with MALME-3M; 1.1% in the assay with ACHN; 9% in the assay with OVCAR-5; 3.8% with HCT-116. Besides, the inhibition at 10 µM with A498 is 13.5%; in the assay on SNB-19 it was 11.5%; with UO-31, 12.4%; in the assay on SK-MEL-28 it was 2.5%; in the assay with CCRF-CEM, -13.9%; with HL-60(TB), 8.9%. For the same molecule, the inhibition at 10 µM with OVCAR-4 was 0.1%; in the assay with UACC-62, 20.5%; in the assay on DU-145, -3.9%; in the assay on HT29, 0.2%; in the assay on MDA-MB-231/ATCC, 6.7%; in the assay on HOP-92, 25.1%. Moreover, the inhibition at 10 µM in the assay on PC-3 is 6.2%; in the assay with KM12, -0.8%; in the assay with MOLT-4, -2.2%.
